Reference: patent US11512057B2, “Unsaturated hydrocarbon pyrimidine thioether compounds and preparation method and application thereof” (Zhejiang University of Technology, priority 2018, dated 2022)

Columns and labels:
Type in all cases: in vivo
[1] = system: powdery mildew of cucumber; experiment: Prevention experiment of powdery mildew of cucumber, living pot assay; conditions: 200 ppm; cucumber seedlings, about 10 days
Procedure: The living pot assay method was adopted, that is, the sample of the test compound was dissolved with a small amount of DMF solvent (the kind of solvent such as acetone, methanol, DMF, etc., is selected according to the solvency of the sample, and the volume ratio of the solvent amount to the spray amount is equal to or less than 0.05), diluted with water containing 0.1% Tween 80, and formulated into the test solution with a desired concentration. Cucumber seedlings at leaf period with the same growth period was sprayed evenly with the prepared agent, and aired. Each concentration was one treatment, each treatment was repeated 3 times, a control agent and a water of blank control were set separately. The fresh powdery mildew spores on the leaves of cucumbers were washed and filtered with double gauze to prepare a suspension with a concentration of about 100,000 spores/mL. The samples were inoculated by spraying, the inoculated samples were moved into artificial climate, and relative humidity was maintained at 60-70%, the temperature was maintained at 23° C., after about 10 days, grading investigation was carried out according to the morbidity of the blank control, control effect was calculated according to disease index.

armyworm = experiment: Activity test of armyworm, leaf-dipping method; conditions: after 3 days
Procedure: A certain amount of the original drug was weighed by an analytical balance (0.0001 g), and dissolved in DMF containing 1% Tween-80 emulsifier to prepare a 1% mother liquor, which was then diluted with distilled water for later use.
The insecticidal efficacy was evaluated by a leaf-dipping method with the armyworm as a target and a spray method with Tetranychus cinnabarinus and Aphis craccivora Koch as a target.
Leaf-dipping method: the target for the test was the armyworm, and corn leaves in an appropriate amount were fully infiltrated in the prepared liquid, then dried naturally, placed in culture dishes with filter papers, inoculated with 3rd instar larvae of the armyworm at 10 heads/dish, and placed in an observation room and cultured at 24˜27° C. the results were investigated after 3 days. A brush was used to touch the insect bodies, and the unresponsive were regarded as dead insects.

[2] = system: adults of Tetranychus cinnabarinus; experiment: Acaricidal comparison, spray method on adults of Tetranychus cinnabarinus
Procedure: Spray method: the test target was Tetranychus cinnabarinus, that is, broad bean leaves inoculated with adults of Tetranychus cinnabarinus were placed under the spray treatment of Potter spray towers. After treatment, the Tetranychus cinnabarinus was placed in an observation room and cultured at 25˜27° C., and the results were investigated after 48 hours. The brush was used to touch the insect body, and the unresponsive were regarded as dead insects. The test concentrations of the compounds on killing cinnabarin were 50, 25, 12.5, 6.25, 3.125 mg/L.

[3] = system: eggs of Tetranychus cinnabarinus; experiment: Acaricidal comparison, egg test
Procedure: Egg test: each treated broad bean leave was inoculated with 10 adults of Tetranychus cinnabarinus, and the adults were removed after the eggs were laid for 24 hours. The leaves with eggs were sprayed under Potter spray towers. After treatment, the eggs of Tetranychus cinnabarinus were placed in an observation room and cultured at 25˜27° C. And the test was examined until the eggs under the blank treatment completely hatched out. The concentration of the compound that kills the eggs of Tetranychus cinnabarinus was 100, 50, 25, 12.5, 6.25 mg/L.

[4] = system: nymphs of Tetranychus cinnabarinus; experiment: Acaricidal comparison, nymph test
Procedure: Nymph test: broad bean leaves were inoculated with 10 adult mites, and the adults were removed after laying eggs for 24 hours. The eggs were fed in insect rearing room, and when they hatched into nymphs, they were sprayed with a sprayer. After treatment, the leaves with the nymphs were placed in an observation room and cultured at 25-27° C., and the results were investigated after 48 hours. A brush was used to touch the insect bodies, and the unresponsive were regarded as the dead. The test concentrations of the compound on killing cinnabarin were 5, 2.5, 1.25, 0.625, 0.3125 mg/L.

SMILES	effect of preventing powdery mildew [1] [%]	lethal rate on armyworm larvae (armyworm; 500 mg/L, 3rd instar larvae) [%]	also measured
C=CCSc1nc(C)cc(OCc2ccccc2/C(=C\OC)C(=O)OC)n1 [Compound 1]	100	–	–
C=CCSc1nc(OCc2ccccc2/C(=C\OC)C(=O)OC)c(Cl)c(C(F)F)n1 [Compound 9]	100	100	–
C=C(Cl)CSc1nc(OCc2ccccc2/C(=C\OC)C(=O)OC)cc(C(F)F)n1 [Compound 34]	100	100	–
C=C(Cl)CSc1nc(OCc2ccccc2/C(=C\OC)C(=O)OC)cc(C(F)(F)F)n1 [Compound 35]	100	100	–
C=C(Cl)CSc1nc(CC)cc(OCc2ccccc2/C(=C\OC)C(=O)OC)n1 [Compound 36]	100	100	–
CO/C=C(/C(=O)OC)c1ccccc1COc1cc(C)nc(SC/C=C/Cl)n1 [Compound 49]	100	–	–
CO/C=C(/C(=O)OC)c1ccccc1COc1cc(C(F)F)nc(SC/C=C/Cl)n1 [Compound 50]	100	–	–
CO/C=C(/C(=O)OC)c1ccccc1COc1cc(C(F)(F)F)nc(SC/C=C/Cl)n1 [Compound 51]	100	100	–
CO/C=C(/C(=O)OC)c1ccccc1COc1cc(C2CC2)nc(SC/C=C/Cl)n1 [Compound 55]	100	–	–
CO/C=C(/C(=O)OC)c1ccccc1COc1cc(C(F)(F)F)nc(SCC=C(Cl)Cl)n1 [Compound 67]	100	100	lethal rate against adult mites compared with fluacrypyrim ([2]; 50, 25, and 12.5 mg/L): better than that of fluacrypyrim; lethal rate on eggs of Tetranychus cinnabarinus compared with fluacrypyrim ([3]; 100, 50, 25, 12.5, 6.25 mg/L): better than that of fluacrypyrim; lethal rate on nymphs of Tetranychus cinnabarinus compared with fluacrypyrim ([4]; 5, 2.5, 1.25, 0.625, 0.3125 mg/L): better than that of fluacrypyrim
CCc1cc(OCc2ccccc2/C(=C\OC)C(=O)OC)nc(SCC=C(Cl)Cl)n1 [Compound 68]	–	–	lethal rate on armyworm larvae (armyworm; 100 mg/L): more than 80%
CO/C=C(/C(=O)OC)c1ccccc1COc1cc(C)nc(SCCC=C(F)F)n1 [Compound 113]	100	100	–
CO/C=C(/C(=O)OC)c1ccccc1COc1cc(C(F)F)nc(SCCC=C(F)F)n1 [Compound 114]	100	–	–
CCc1cc(OCc2ccccc2/C(=C\OC)C(=O)OC)nc(SCCC=C(F)F)n1 [Compound 116]	–	100	–
CCCc1cc(OCc2ccccc2/C(=C\OC)C(=O)OC)nc(SCCC=C(F)F)n1 [Compound 117]	–	100	–
CO/C=C(/C(=O)OC)c1ccccc1COc1cc(C(C)C)nc(SCCC=C(F)F)n1 [Compound 118]	–	100	–
CO/C=C(/C(=O)OC)c1ccccc1COc1cc(C2CC2)nc(SCCC=C(F)F)n1 [Compound 119]	–	100	–
CO/C=C(/C(=O)OC)c1ccccc1COc1nc(SCCC=C(F)F)nc(C)c1C [Compound 127]	100	–	–
CCCCc1c(C)nc(SCCC=C(F)F)nc1OCc1ccccc1/C(=C\OC)C(=O)OC [Compound 128]	–	100	–
C=CCSc1nc(C)cc(OCc2ccccc2/C(=N\OC)C(=O)OC)n1 [Compound 145]	–	100	–
C=CCSc1nc(OCc2ccccc2/C(=N\OC)C(=O)OC)cc(C(F)F)n1 [Compound 146]	100	–	–
C=CCSc1nc(OCc2ccccc2/C(=N\OC)C(=O)OC)cc(C(F)(F)F)n1 [Compound 147]	–	100	–
C=C(Cl)CSc1nc(C)cc(OCc2ccccc2/C(=N\OC)C(=O)OC)n1 [Compound 177]	100	–	–
C=C(Cl)CSc1nc(OCc2ccccc2/C(=N\OC)C(=O)OC)cc(C(F)(F)F)n1 [Compound 179]	100	100	–

SMILES	effect of preventing powdery mildew [1] [%]	lethal rate on armyworm larvae (armyworm; 500 mg/L, 3rd instar larvae) [%]	also measured
C=C(Cl)CSc1nc(CC)cc(OCc2ccccc2/C(=N\OC)C(=O)OC)n1 [Compound 180]	100	100	–
C=C(Cl)CSc1nc(C)c(C)c(OCc2ccccc2/C(=N\OC)C(=O)OC)n1 [Compound 191]	100	–	–
CO/N=C(/C(=O)OC)c1ccccc1COc1cc(C)nc(SC/C=C/Cl)n1 [Compound 193]	100	100	–
CO/N=C(/C(=O)OC)c1ccccc1COc1cc(C(F)F)nc(SC/C=C/Cl)n1 [Compound 194]	100	100	–
CO/N=C(/C(=O)OC)c1ccccc1COc1cc(C2CC2)nc(SC/C=C/Cl)n1 [Compound 199]	100	100	–
CO/N=C(/C(=O)OC)c1ccccc1COc1cc(C(F)(F)F)nc(SCC=C(Cl)Cl)n1 [Compound 211]	–	100	–
CCCc1cc(OCc2ccccc2/C(=N\OC)C(=O)OC)nc(SCC=C(Cl)Cl)n1 [Compound 213]	–	100	–
CO/N=C(/C(=O)OC)c1ccccc1COc1cc(C(C)C)nc(SCC=C(Cl)Cl)n1 [Compound 214]	–	100	–
CO/N=C(/C(=O)OC)c1ccccc1COc1cc(C2CC2)nc(SCC=C(Cl)Cl)n1 [Compound 215]	–	100	–
CCc1cc(OCc2ccccc2/C(=N\OC)C(=O)OC)nc(SCCC=C(F)F)n1 [Compound 260]	–	100	–
CCCc1cc(OCc2ccccc2/C(=N\OC)C(=O)OC)nc(SCCC=C(F)F)n1 [Compound 261]	–	100	–
CO/N=C(/C(=O)OC)c1ccccc1COc1nc(SCCC=C(F)F)nc(C)c1C [Compound 271]	100	100	–
COC(=O)N(OC)c1ccccc1COc1cc(C)nc(SC/C=C/Cl)n1 [Compound 337]	–	100	–
COC(=O)N(OC)c1ccccc1COc1cc(C(F)F)nc(SC/C=C/Cl)n1 [Compound 338]	–	100	–
COC(=O)N(OC)c1ccccc1COc1cc(C)nc(SCC=C(Cl)Cl)n1 [Compound 353]	–	100	–
COC(=O)N(OC)c1ccccc1COc1cc(C(F)F)nc(SCC=C(Cl)Cl)n1 [Compound 354]	–	100	–
CCc1cc(OCc2ccccc2N(OC)C(=O)OC)nc(SCC=C(Cl)Cl)n1 [Compound 356]	–	100	–
CCCc1cc(OCc2ccccc2N(OC)C(=O)OC)nc(SCC=C(Cl)Cl)n1 [Compound 357]	–	100	–
COC(=O)N(OC)c1ccccc1COc1cc(C2CC2)nc(SCC=C(Cl)Cl)n1 [Compound 359]	–	100	–
CCCc1cc(OCc2ccccc2N(OC)C(=O)OC)nc(SCCC=C(F)F)n1 [Compound 405]	–	100	–
COC(=O)N(OC)c1ccccc1COc1cc(C(C)C)nc(SCCC=C(F)F)n1 [Compound 406]	–	100	–
CCc1cc(OCc2ccccc2C(=NOC)C(=O)NC)nc(SCCC=C(F)F)n1 [Compound 549]	–	100	–
CO/C=C(/C(=O)OC)c1ccccc1COc1cc(C(F)(F)F)nc(OC(C)C)n1 [Fluacrypyrim, fluacrypyrim]	–	–	mortality at 3.125 µg/mL ([2]; Tetranychus cinnabarinus, 48 h): 39.5%; mortality at 6.25 µg/mL ([2]; Tetranychus cinnabarinus, 48 h): 64.6%; mortality at 12.5 µg/mL ([2]; Tetranychus cinnabarinus, 48 h): 70.6%; mortality at 25 µg/mL ([2]; Tetranychus cinnabarinus, 48 h): 75.9%; mortality at 50 µg/mL ([2]; Tetranychus cinnabarinus, 48 h): 88.9%; mortality at 6.25 µg/mL ([3]; Tetranychus cinnabarinus): 10.8%; mortality at 12.5 µg/mL ([3]; Tetranychus cinnabarinus): 13.6%; mortality at 25 µg/mL ([3]; Tetranychus cinnabarinus): 32.2%; mortality at 50 µg/mL ([3]; Tetranychus cinnabarinus): 54.9%; mortality at 100 µg/mL ([3]; Tetranychus cinnabarinus): 75%; mortality at 0.3125 µg/mL ([4]; Tetranychus cinnabarinus, 48 h): 7.74%; mortality at 0.625 µg/mL ([4]; Tetranychus cinnabarinus, 48 h): 17.1%; mortality at 1.25 µg/mL ([4]; Tetranychus cinnabarinus, 48 h): 28.8%; mortality at 2.5 µg/mL ([4]; Tetranychus cinnabarinus, 48 h): 55.3%; mortality at 5 µg/mL ([4]; Tetranychus cinnabarinus, 48 h): 82.5%
